According to ChEMBL document CHEMBL1201862, “PubChem BioAssay data set” (2004):
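In this assay, cells in 96-well plates receive the compound at five concentrations for 48 hours. Endpoints are linearly interpolated between the surrounding concentrations. The concentration for 50% growth inhibition is given as GI50.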 The source made the active and inactive calls. No stated cut-off is given here; in the data, active = GI50 up to about 1.1 µM and inactive = higher.

Experiments:
Assay in all cases: NCI-60 cell line screen, 48 h
RPMI-8226 = test system: RPMI-8226
SW-620 = test system: SW-620
BT-549 = test system: BT-549
RXF 393 = test system: RXF 393
MDA-MB-231 = test system: MDA-MB-231
MDA-N = test system: MDA-N
Malme-3M = test system: Malme-3M
SF-539 = test system: SF-539
COLO 205 = test system: COLO 205
A498 = test system: A498
T47D = test system: T47D
SK-MEL-5 = test system: SK-MEL-5
SK-MEL-28 = test system: SK-MEL-28
ACHN = test system: ACHN
HOP-92 = test system: HOP-92
DU-145 = test system: DU-145
HCT-15 = test system: HCT-15
HL-60 = test system: HL-60
M14 = test system: M14
SNB-75 = test system: SNB-75
UO-31 = test system: UO-31
OVCAR-3 = test system: OVCAR-3
TK-10 = test system: TK-10
786-0 = test system: 786-0
OVCAR-5 = test system: OVCAR-5
SK-OV-3 = test system: SK-OV-3
SN12C = test system: SN12C
MCF7 = test system: MCF7
NCI-H522 = test system: NCI-H522
MOLT-4 = test system: MOLT-4
OVCAR-4 = test system: OVCAR-4
NCI-H23 = test system: NCI-H23
NCI-H460 = test system: NCI-H460
CAKI-1 = test system: CAKI-1
HCT-116 = test system: HCT-116
CCRF-CEM = test system: CCRF-CEM
SR = test system: SR
NCI/ADR-RES = test system: NCI/ADR-RES
SNB-19 = test system: SNB-19
OVCAR-8 = test system: OVCAR-8
U-251 = test system: U-251
UACC-62 = test system: UACC-62
LOX IMVI = test system: LOX IMVI
Hs-578T = test system: Hs-578T
IGROV-1 = test system: IGROV-1
HT-29 = test system: HT-29
A549 = test system: A549
SK-MEL-2 = test system: SK-MEL-2
SF-295 = test system: SF-295
EKVX = test system: EKVX
PC-3 = test system: PC-3
MDA-MB-435 = test system: MDA-MB-435
UACC-257 = test system: UACC-257
SF-268 = test system: SF-268
KM12 = test system: KM12
NCI-H226 = test system: NCI-H226
HOP-62 = test system: HOP-62
HCC 2998 = test system: HCC 2998
K562 = test system: K562

Measured: GI50

CN(C)c1cccc(/C=C(\C#N)c2ccccc2)c1
0.219 µM: HCT-15
inactive: BT-549 21.3 µM | Malme-3M 1.95 µM | A498 2.11 µM | SK-MEL-28 7.33 µM | ACHN 14.4 µM | HOP-92 2.94 µM | DU-145 1.65 µM | SNB-75 1.39 µM | UO-31 5.46 µM | 786-0 2.21 µM | OVCAR-5 3.72 µM | SN12C 1.15 µM | OVCAR-4 17.1 µM | NCI-H23 1.44 µM | SNB-19 1.72 µM | A549 2.61 µM | EKVX 2.14 µM | SF-268 8.77 µM | NCI-H226 2.55 µM
active: RPMI-8226 579 nM | SW-620 316 nM | RXF 393 706 nM | MDA-MB-231 1.11 µM | MDA-N 0.0451 µM | SF-539 0.587 µM | COLO 205 533 nM | T47D 0.525 µM | SK-MEL-5 371 nM | HL-60 86.5 nM | M14 277 nM | OVCAR-3 157 nM | TK-10 944 nM | SK-OV-3 1.11 µM | MCF7 0.218 µM | NCI-H522 273 nM | MOLT-4 493 nM | NCI-H460 527 nM | CAKI-1 0.771 µM | HCT-116 396 nM | CCRF-CEM 0.794 µM | SR 87.9 nM | NCI/ADR-RES 0.257 µM | OVCAR-8 1.01 µM | U-251 0.687 µM | UACC-62 0.792 µM | LOX IMVI 406 nM | Hs-578T 0.723 µM | IGROV-1 1.11 µM | HT-29 213 nM | SK-MEL-2 316 nM | SF-295 574 nM | PC-3 1.12 µM | MDA-MB-435 0.0478 µM | UACC-257 1.01 µM | KM12 100 nM | HOP-62 0.164 µM | HCC 2998 0.565 µM | K562 92.7 nM

O=[N+]([O-])c1nccn1CCCNc1ccnc2cc(Cl)ccc12
19.8 µM: HCT-15
inactive: RPMI-8226 4340 nM | SW-620 4230 nM | BT-549 8.69 µM | RXF 393 4260 nM | MDA-MB-231 6.59 µM | MDA-N 7.29 µM | Malme-3M 29 µM | SF-539 5.48 µM | COLO 205 3050 nM | A498 5.08 µM | T47D 7.67 µM | SK-MEL-5 2290 nM | SK-MEL-28 > 9.86 µM | ACHN 4.75 µM | HOP-92 > 7.98 µM | DU-145 > 7.74 µM | HL-60 5000 nM | M14 4500 nM | SNB-75 6.62 µM | UO-31 5.4 µM | OVCAR-3 1770 nM | TK-10 3530 nM | 786-0 3.76 µM | OVCAR-5 14.4 µM | SK-OV-3 6.49 µM | SN12C 3.3 µM | MCF7 50 µM | NCI-H522 2250 nM | MOLT-4 3640 nM | OVCAR-4 6.41 µM | NCI-H23 5.52 µM | NCI-H460 3120 nM | CAKI-1 > 5.93 µM | HCT-116 3470 nM | CCRF-CEM 5.38 µM | SR 2810 nM | NCI/ADR-RES > 96.6 µM | SNB-19 4.06 µM | OVCAR-8 7.4 µM | U-251 6.82 µM | UACC-62 6.21 µM | LOX IMVI 4630 nM | Hs-578T > 100 µM | IGROV-1 7.71 µM | HT-29 3940 nM | A549 5.43 µM | SK-MEL-2 4290 nM | SF-295 3800 nM | EKVX 1.93 µM | PC-3 5.09 µM | MDA-MB-435 6.71 µM | UACC-257 3.44 µM | SF-268 7.48 µM | KM12 5370 nM | NCI-H226 3.27 µM | HOP-62 25.5 µM | HCC 2998 18.2 µM | K562 4240 nM
